Drawing on patent US20250032623A1, “HETEROBIFUNCTIONAL COMPOUNDS AND THEIR USE IN TREATING DISEASE” (HALDA THERAPEUTICS OPCO, INC., priority 2021, published 2025), this text covers Kd and GI50 for nine compounds.

The structures appear in SMILES notation. Bounds are passed on as bounds.

The target of one experiment is T1, EGFR (Homo sapiens, UniProt P00533).
T1 construct: purchased
Briefly: KdELECT binding assay, EGFR. The protocol: Exemplary compounds were tested for ability to bind to EGFR.
(§1) Compounds were tested using a KdELECT assay. Kinase-tagged T7 phage strains were prepared in an E. coli host derived from the BL21 strain. E. coli were grown to log-phase and infected with T7 phage and incubated with shaking at 32° C. until lysis. The lysates were centrifuged and filtered to remove cell debris. The remaining kinases were produced in HEK-293 cells and subsequently tagged with DNA for qPCR detection. Streptavidin-coated magnetic beads were treated with biotinylated small molecule ligands for 30 minutes at room temperature to generate affinity resins for kinase assays. The liganded beads were blocked with excess biotin and washed with blocking buffer (SeaBlock (Pierce), 1% BSA, 0.05% Tween 20, 1 mM DTT) to remove unbound ligand and to reduce non-specific binding. Binding reactions were assembled by combining kinases, liganded affinity beads, and test compounds in 1× binding buffer (20% SeaBlock, 0.17×PBS, 0.05% Tween 20, 6 mM DTT). Test compounds were prepared as 111× stocks in 100% DMSO. Kd values were determined using an 11-point 3-fold compound dilution series with three DMSO control points. All compounds for Kd measurements are distributed by acoustic transfer (non-contact dispensing) in 100% DMSO. The compounds were then diluted directly into the assays such that the final concentration of DMSO was 0.9%. All reactions performed in polypropylene 384-well plate. Each was a final volume of 0.02 mL. The assay plates were incubated at room temperature with shaking for 1 hour and the affinity beads were washed with wash buffer (1× PBS, 0.05% Tween 20). The beads were then re-suspended in elution buffer (1× PBS, 0.05% Tween 20, 0.5 μM nonbiotinylated affinity ligand) and incubated at room temperature with shaking for 30 minutes. The kinase concentration in the eluates was measured by qPCR.

Experiment [1] addresses T2, EGFR WT (amino acids 669-1011, Accession Number NP_005219.2) (Homo sapiens, UniProt P00533).
T2 construct: purchased Eurofins Discovery; host or cells: bacteria (E. coli, BL21-derived, T7 phage)
The experiment can be described thus: KdELECT binding assay (Eurofins Discovery), EGFR WT. As to the method: (§2) Exemplary compounds were tested for ability to bind to EGFR WT (amino acids 669-1011, Accession Number NP_005219.2) or EGFR T790M, L858R (amino acids 669-1011 Accession Number NP_005219.2) expressed from bacteria or mammalian cells, respectively. Compounds were tested using the KdELECT assay at Eurofins Discovery.
as §1, with “Kinase-tagged” for “Compounds were tested using a KdELECT assay. Kinase-tagged”

For experiment [2], the target named is T3, EGFR T790M, L858R (amino acids 669-1011 Accession Number NP_005219.2) (Homo sapiens, UniProt P00533, L858R/T790M).
T3 construct: purchased Eurofins Discovery; host or cells: mammalian cells (HEK-293)
Briefly: KdELECT binding assay (Eurofins Discovery), EGFR T790M, L858R. As to conditions: read-out: EGFR DM Kd. The protocol:
as §2
as §1, with “Kinase-tagged” for “Compounds were tested using a KdELECT assay. Kinase-tagged”

The next experiment deals with HEK293 cells. The experiment can be described thus: Cellular growth inhibition assay (CellTiter-Glo), HEK293 cells. Type of experiment: cell-based. As to conditions: Homo sapiens, 72 h, three days compound treatment, CellTiter-Glo 2.0, read-out: CTG HEK293 GI50. As to the method:
Exemplary compounds were tested for ability to inhibit the proliferation of HEK293 cells or HeLa cells.
HEK293 and HeLa cells were cultured in DMEM medium supplemented with 10% fetal bovine serum and 1% Penn/Strep. Cells were seeded in white 384-well plates at 500 cells/well in […] complete medium. Following seeding, plates were spun at 300×g for three minutes and cultured at 37° C. with 5% CO2 in a humidified tissue culture incubator.
After 24 hours, compounds were titrated in 100% DMSO and diluted in complete cell culture medium. […] of compound/media mixture was added to cells to bring total volume in well to […]. DMSO alone was used as a negative control. P lates were then spun at 300×g for three minutes and stored at 37° C. with 5% CO2 for three days.
On Day 0 and Day 3 of compound treatment, cell viability was quantified with CellTiter-Glo 2.0 reagent (Promega). After equilibrating microplates at room temperature for 30 minutes, 25 μL CellTiter-Glo 2.0 reagent was dispensed into each well to bring total volume to […]. Plates were mixed on shaker for 2 minutes at 500 rpm, followed by a 10-minute incubation at room temperature. Following a quick spin, luminescence readings were measured with an EnVision Plate Reader. Data was normalized to DMSO treated Day 0 and Day 3 readings. A four-parameter non-linear regression curve fit was applied to dose-response data in GraphPad Prism data analysis software to determine the half maximal growth inhibitory concentration (GI50) for each compound.
On the technique in general: ATP-based viability assays read luminescence as a measure of living cells.

T2 sequence (P00533 669-1011): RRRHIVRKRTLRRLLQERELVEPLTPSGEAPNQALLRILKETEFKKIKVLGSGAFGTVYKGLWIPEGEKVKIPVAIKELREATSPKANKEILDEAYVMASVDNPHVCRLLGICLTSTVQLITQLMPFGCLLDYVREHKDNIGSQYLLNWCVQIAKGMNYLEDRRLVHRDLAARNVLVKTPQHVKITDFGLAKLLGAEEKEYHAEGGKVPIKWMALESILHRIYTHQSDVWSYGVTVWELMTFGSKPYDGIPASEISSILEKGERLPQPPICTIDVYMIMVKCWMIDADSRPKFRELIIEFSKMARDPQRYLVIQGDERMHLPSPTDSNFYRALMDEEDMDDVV
T3 sequence (P00533 669-1011 T790M/L858R): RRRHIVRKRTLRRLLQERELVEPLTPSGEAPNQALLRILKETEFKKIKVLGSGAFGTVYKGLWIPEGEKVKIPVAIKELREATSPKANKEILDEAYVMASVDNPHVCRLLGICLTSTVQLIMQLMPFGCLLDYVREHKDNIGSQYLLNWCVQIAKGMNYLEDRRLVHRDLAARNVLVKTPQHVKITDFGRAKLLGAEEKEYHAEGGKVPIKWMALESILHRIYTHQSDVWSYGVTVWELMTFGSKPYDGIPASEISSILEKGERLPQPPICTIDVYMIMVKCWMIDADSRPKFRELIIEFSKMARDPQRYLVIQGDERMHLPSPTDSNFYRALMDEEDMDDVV
T1 sequence (P00533 25-1210): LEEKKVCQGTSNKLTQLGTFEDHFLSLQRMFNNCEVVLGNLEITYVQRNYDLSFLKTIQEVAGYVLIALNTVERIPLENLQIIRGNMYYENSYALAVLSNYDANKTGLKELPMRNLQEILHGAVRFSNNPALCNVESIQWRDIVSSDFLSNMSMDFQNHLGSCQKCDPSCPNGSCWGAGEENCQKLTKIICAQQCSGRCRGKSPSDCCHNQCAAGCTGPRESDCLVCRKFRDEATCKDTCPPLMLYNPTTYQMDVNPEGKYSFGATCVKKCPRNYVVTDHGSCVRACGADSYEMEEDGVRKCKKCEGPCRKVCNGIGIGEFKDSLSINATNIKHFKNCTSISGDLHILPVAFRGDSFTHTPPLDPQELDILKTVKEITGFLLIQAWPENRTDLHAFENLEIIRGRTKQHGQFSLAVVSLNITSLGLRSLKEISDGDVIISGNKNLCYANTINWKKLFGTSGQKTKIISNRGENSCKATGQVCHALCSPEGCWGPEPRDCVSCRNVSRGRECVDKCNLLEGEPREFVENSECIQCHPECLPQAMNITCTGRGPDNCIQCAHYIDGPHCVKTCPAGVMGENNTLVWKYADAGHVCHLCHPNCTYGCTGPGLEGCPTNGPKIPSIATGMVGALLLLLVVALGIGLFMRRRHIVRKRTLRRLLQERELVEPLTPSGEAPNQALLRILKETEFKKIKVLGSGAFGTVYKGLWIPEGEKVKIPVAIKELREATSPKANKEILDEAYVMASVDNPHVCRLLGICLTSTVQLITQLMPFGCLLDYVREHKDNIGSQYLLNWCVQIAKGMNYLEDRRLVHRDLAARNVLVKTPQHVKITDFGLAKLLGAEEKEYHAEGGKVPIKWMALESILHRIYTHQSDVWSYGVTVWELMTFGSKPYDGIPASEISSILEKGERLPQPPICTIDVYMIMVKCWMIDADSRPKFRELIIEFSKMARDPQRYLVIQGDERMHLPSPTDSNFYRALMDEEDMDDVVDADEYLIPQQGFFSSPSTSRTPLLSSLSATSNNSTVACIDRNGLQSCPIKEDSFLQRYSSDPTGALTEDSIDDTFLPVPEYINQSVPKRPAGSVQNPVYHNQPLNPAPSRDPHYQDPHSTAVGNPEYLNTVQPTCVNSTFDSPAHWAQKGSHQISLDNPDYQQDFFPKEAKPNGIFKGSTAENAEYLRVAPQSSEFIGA

One may read the Kd as a measure of binding affinity in units of concentration. For `C=CC(=O)Nc1cc(Nc2nccc(-c3cn(C)c4ccccc34)n2)c(OC)cc1N(C)CCN(C)CCCCCCCCNS(=O)(=O)c1ccc(Nc2ncc(Br)c(Nc3cccc(F)c3C(N)=O)n2)cc1` [Compound I-28, 2-[[5-bromo-2-[4-[8-[2-[5-methoxy-N-methyl-4-[[4-(1-methylindol-3-yl)pyrimidin-2-yl]amino]-2-(prop-2-enoylamino)anilino]ethyl-methyl-amino]octylsulfamoyl]anilino]pyrimidin-4-yl]amino]-6-fluoro-benzamide], the Kd is under 50 nM on EGFR, 50 to 500 nM in experiment [1] and under 50 nM in experiment [2].
On to `C=CC(=O)Nc1cc(Nc2nccc(-c3cn(C)c4ccccc34)n2)c(OC)cc1N(C)CCN(C)CCCCNS(=O)(=O)c1ccc(Nc2ncc(Br)c(Nc3cccc(F)c3C(N)=O)n2)cc1` [Compound I-29, 2-[[5-bromo-2-[4-[4-[2-[5-methoxy-N-methyl-4-[[4-(1-methylindol-3-yl)pyrimidin-2-yl]amino]-2-(prop-2-enoylamino)anilino]ethyl-methyl-amino]butylsulfamoyl]anilino]pyrimidin-4-yl]amino]-6-fluoro-benzamide], for which the Kd is 50 to 500 nM in experiment [1] and under 50 nM in experiment [2].
Consider `C=CC(=O)Nc1cc(Nc2nccc(-c3cn(C)c4ccccc34)n2)c(OC)cc1N(C)CCN(C)CCOCCOCCOCCOCCNS(=O)(=O)c1ccc(Nc2ncc(Br)c(Nc3cccc(F)c3C(N)=O)n2)cc1` [Compound I-32, 2-[[5-bromo-2-[4-[2-[2-[2-[2-[2-[2-[5-methoxy-N-methyl-4-[[4-(1-methylindol-3-yl)pyrimidin-2-yl]amino]-2-(prop-2-enoylamino)anilino]ethyl-methyl-amino]ethoxy]-ethoxy]ethoxy]ethoxy]ethylsulfamoyl]anilino]pyrimidin-4-yl]amino]-6-fluoro-benzamide], for which the values for the Kd in experiment [1] and in experiment [2] were 50 to 500 nM and under 50 nM, respectively.
On to `C=CC(=O)Nc1cc(Nc2nccc(-c3cn(C)c4ccccc34)n2)c(OC)cc1N(C)CCN(C)CCOCCOCCOCCOCCOCCOCCNS(=O)(=O)c1ccc(Nc2ncc(Br)c(Nc3cccc(F)c3C(N)=O)n2)cc1` [Compound I-34, 2-[[5-bromo-2-[4-[2-[2-[2-[2-[2-[2-[2-[2-[5-methoxy-N-methyl-4-[[4-(1-methylindol-3-yl)pyrimidin-2-yl]amino]-2-(prop-2-enoylamino)anilino]ethyl-methyl-amino]ethoxy]ethoxy]ethoxy]-ethoxy]ethoxy]ethoxy]ethylsulfamoyl]anilino]pyrimidin-4-yl]amino]-6-fluoro-benzamide], for which the Kd on EGFR was under 50 nM; in experiment [1], 50 to 500 nM; in experiment [2], under 50 nM.
Consider `C=CC(=O)Nc1cc(Nc2nccc(-c3cn(C)c4ccccc34)n2)c(OC)cc1N(C)CCN(C)CCOCCOCCOCCOCCOCCOCCON(C)C(=O)N1N=C(c2cc(F)ccc2F)SC1(CCCN)c1ccccc1` (stereo not shown) [Compound I-68], for which the Kd is 500 to 2500 nM in experiment [1] and under 50 nM in experiment [2].
For `C=CC(=O)Nc1cc(Nc2nccc(-c3cn(C)c4ccccc34)n2)c(OC)cc1N(C)CCN(C)CCOCCOCCOCCOCCNC(=O)c1ccc(Nc2ncc3c(n2)N(C2CCCC2)[C@H](CC)C(=O)N3C)c(OC)c1` [Compound I-112, 4-[[(7R)-8-cyclopentyl-7-ethyl-5-methyl-6-oxo-7H-pteridin-2-yl]amino]-3-methoxy-N-[2-[2-[2-1[2-[2-1[2-1[5-methoxy-N-methyl-4-1[[4-(1-methylindol-3-yl)pyrimidin-2-yl]amino]-2-(prop-2-enoylamino)anilino]ethyl-methyl-amino]ethoxy]ethoxy]ethoxy]ethoxy]ethyl]benzamide], the dissociation constant Kd (at EGFR; in experiment [1]) was 500 to 2500 nM in each case.
One may read the GI50 as the concentration that inhibits growth by half. As for `C=CC(=O)Nc1cc(Nc2nccc(-c3cn(C)c4ccccc34)n2)c(OC)cc1N(C)CCN(C)CCOCCOCCOCCOCCOCCOCCNC(=O)c1ccc(Nc2ncc3c(n2)N(C2CCCC2)[C@H](CC)C(=O)N3C)c(OC)c1` [Compound I-113, (R)—N-(2-(2-acrylamido-5-methoxy-4-((4-(1-methyl-1H-indol-3-yl)pyrimidin-2-yl)amino)phenyl)-5-methyl-8,11,14,17,20,23-hexaoxa-2,5-diazapentacosan-25-yl)-4-((8-cyclopentyl-7-ethyl-5-methyl-6-oxo-5,6,7,8-tetrahydropteridin-2-yl)amino)-3-methoxybenzamide], the GI50 in the experiment on HEK293 cells fell in the range of 1500 to 5000 nM. Moreover, the Kd (at EGFR; in experiment [1]) was 500 to 2500 nM in each case.
For `C=CC(=O)Nc1cc(Nc2nccc(-c3cn(C)c4ccccc34)n2)c(OC)cc1N(C)CCN(C)CCNC(=O)c1ccc(Nc2ncc3c(n2)N(C2CCCC2)[C@H](CC)C(=O)N3C)c(OC)c1` [Compound I-115, 4-[[(7R)-8-cyclopentyl-7-ethyl-5-methyl-6-oxo-7H-pteridin-2-yl]amino]-3-methoxy-N-[2-[2-[5-methoxy-N-methyl-4-[1[4-(1-methylindol-3-yl)pyrimidin-2-yl]amino]-2-(prop-2-enoylamino)anilino]ethyl-methyl-amino]ethyl]benzamide], the GI50 with HEK293 cells fell in the range of 500 to 1500 nM. In addition, the Kd on EGFR is over 2500 nM; in experiment [1], over 2500 nM; in experiment [2], 50 to 500 nM.
With `CC[C@@H]1C(=O)N(C)c2cnc(Nc3ccc(C(=O)NCCOCCOCCN(C)C/C=C/C(=O)Nc4cc(Nc5nccc(-c6cn(C)c7ccccc67)n5)c(OC)cc4N(C)CCN(C)C)cc3OC)nc2N1C1CCCC1` [Compound I-117, 4-[[(7R)-8-cyclopentyl-7-ethyl-5-methyl-6-oxo-7H-pteridin-2-yl]amino]-N-[2-[2-[2-1[[(E)-4-1[2-[2-(dimethylamino)ethyl-methyl-amino]-4-methoxy-5-1[[4-(1-methylindol-3-yl)pyrimidin-2-yl]amino]anilino]-4-oxo-but-2-enyl]-methyl-amino]ethoxy]ethoxy]ethyl]-3-methoxy-benzamide], the GI50 with HEK293 cells is 500 to 1500 nM. The results for the Kd (on EGFR; in experiment [1]; in experiment [2]) were over 2500 nM, over 2500 nM and 50 to 500 nM, respectively.
